Here are results for 1 compound from patent US20200000752A1, “Method for Treating Epilepsy” (Vanderbilt University, priority 2016, published 2020).

The nature of data set [1]: Hepatic microsomal clearance (mouse). The class given is in vitro ADME. The following applies: liver microsomes, pH 7.4. Here is the method: Intrinsic clearance and predicted hepatic clearance: Intrinsic clearance will be determined using the substrate depletion approach. Reactions (0.3 mL) will be conducted using a Tecan EVO (San Jose, Calif.) in 96-well polypropylene cluster tubes with a temperature controlled water-jacketed aluminum plate holder held at 37° C. Incubations will be performed in triplicate in 0.1 M potassium phosphate buffer (pH 7.4), 3 mM MgCl2, 1 μM tizanidine, and 1 mg/mL liver microsomes. After incubation mixtures are equilibrated for 3 min at 37° C., reactions will be initiated with 10 mM NADPH to give a final NADPH concentration of 1 mM. At 0, 3, 7, 15, 25, and 45 min, a 25 μL aliquot will be removed from the reactions and delivered into 125 μL of acetonitrile containing an internal standard. The quench plates will then be centrifuged at 3,000×g for 10 min and an aliquot of the supernatants added to an injection plate with an equal volume of water. Samples will then be analyzed using LC/MS/MS.
Intrinsic clearance is calculated as: […]
Species-specific parameters for mouse and human liver protein content will be used. The predicted hepatic clearance will then be estimated using species-specific liver blood flow values: […]

In data set [2] the target is T1, GABAA α1β2γ2(R82Q) receptors (Homo sapiens, UniProt P14867+P18507+P47870, R82Q).
T1 construct: expressed in transfected cells; host or cells: HEK 293T
T1 sequence (P14867 28-456): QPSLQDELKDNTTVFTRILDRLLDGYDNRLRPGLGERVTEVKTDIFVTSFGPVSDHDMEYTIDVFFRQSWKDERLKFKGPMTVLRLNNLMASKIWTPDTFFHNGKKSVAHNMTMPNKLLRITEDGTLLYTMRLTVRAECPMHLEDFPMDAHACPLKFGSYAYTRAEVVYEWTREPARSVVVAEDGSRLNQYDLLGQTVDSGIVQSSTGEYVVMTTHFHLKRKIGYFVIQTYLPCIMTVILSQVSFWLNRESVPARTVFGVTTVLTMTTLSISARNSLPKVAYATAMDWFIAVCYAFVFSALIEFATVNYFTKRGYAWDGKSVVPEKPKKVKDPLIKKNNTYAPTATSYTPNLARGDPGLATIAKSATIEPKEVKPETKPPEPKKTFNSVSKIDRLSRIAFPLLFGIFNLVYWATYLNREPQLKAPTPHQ
T1 sequence (P47870 25-512 limits assumed): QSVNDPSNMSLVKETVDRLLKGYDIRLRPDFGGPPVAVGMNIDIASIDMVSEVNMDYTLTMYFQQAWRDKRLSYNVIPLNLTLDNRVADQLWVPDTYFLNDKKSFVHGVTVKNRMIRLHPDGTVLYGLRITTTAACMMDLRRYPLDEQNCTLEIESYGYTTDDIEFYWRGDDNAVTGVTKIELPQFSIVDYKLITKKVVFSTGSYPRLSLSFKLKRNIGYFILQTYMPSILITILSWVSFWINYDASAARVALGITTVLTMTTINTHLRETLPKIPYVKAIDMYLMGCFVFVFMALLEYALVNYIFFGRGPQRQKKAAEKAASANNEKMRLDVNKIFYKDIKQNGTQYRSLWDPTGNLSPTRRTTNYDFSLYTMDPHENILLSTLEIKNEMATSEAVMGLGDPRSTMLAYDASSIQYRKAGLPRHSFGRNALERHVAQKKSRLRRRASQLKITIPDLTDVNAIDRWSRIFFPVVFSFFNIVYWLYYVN
T1 sequence (P18507 40-467 isoform P18507-1 R82Q limits assumed): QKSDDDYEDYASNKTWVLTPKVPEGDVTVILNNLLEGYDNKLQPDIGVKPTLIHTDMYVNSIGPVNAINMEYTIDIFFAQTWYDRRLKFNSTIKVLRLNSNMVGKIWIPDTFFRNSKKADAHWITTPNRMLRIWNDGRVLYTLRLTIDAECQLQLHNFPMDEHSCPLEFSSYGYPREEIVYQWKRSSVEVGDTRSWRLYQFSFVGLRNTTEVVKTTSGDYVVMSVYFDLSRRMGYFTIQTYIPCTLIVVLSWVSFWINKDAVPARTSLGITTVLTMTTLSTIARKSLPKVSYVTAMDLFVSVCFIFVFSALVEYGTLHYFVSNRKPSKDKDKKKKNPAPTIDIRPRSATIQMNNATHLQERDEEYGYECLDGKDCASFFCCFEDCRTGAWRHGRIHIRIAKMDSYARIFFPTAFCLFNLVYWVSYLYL
Nature of the data set: Patch clamp current amplitude, α1β2γ2(R82Q) receptors in HEK 293T cells. The class given is cell-based. Conditions: 1 μm, 4 hrs; GABA 1 mM. As to the method: (§1) HEK 293T cells were transfected with the human GABAA receptor α1, β2 subunits with the wild-type γ2s, the mutant γ2s(Q390X) or γ2s(R82Q) subunits for 48 hrs. […] A. Lifted whole cells were recorded with the application of GABA 1 mM for 6 sec. Cells was voltage clamped at −50 mV.
(§2) HEK 293T cells were transfected with the human GABAA receptor α1, β2 subunits with the wild-type γ2s, the mutant γ2s(Q390X) or γ2s(R82Q) subunits for 48 hrs.

The next data set in a line: Plasma protein binding. It counts as in vitro ADME. The following applies: read-out: fraction unbound in plasma (fuplasma).
In a further data set the test system is Gabrb3^+/− mice. Nature of the data set: Barnes maze, Gabrb3+/- mice. The following applies: 0.3 mg/kg IP for 2 weeks, 6-8 months old. It counts as in vivo, mouse. Here is the method: Flow chart in FIG. 13A depicts an overview of the Barnes maze. In training trials which are considered as learning test, time spent to locate the target hole was recorded and quantified for each day in each mouse genotype. In probe trials which are considered as memory test, an hour after the last training trial, each mouse was allotted a 300 sec session to find the target hole. […]. The total time spent at each of the 12 holes was assessed.

The subject of another data set is Scn1a^+/− mice. Nature of the data set: Survival and seizure activity in Scn1a+/- mice after 1 month off celastrol. It counts as in vivo, mouse. Conditions: 0.3 mg/kg 14 d on and 1 month off. From the text: Intermittent dosing will greatly increase compliance and reduce side effects for long-term treatment. However, it is necessary to determine the duration the efficacy lasts after certain doses and the duration it takes to recover to baseline.

In data set [3] the test system is Gabrg2^+/Q390X mice. Nature of the data set: EEG spike-wave discharges (SWD) in Gabrg2+/Q390X mice after 14 days dosing. The class given is in vivo, mouse. Here is the method:
(FIG. 4A). […] . (FIG. 4B). In 4B, the mice were recorded for 24 hrs for EEGs and a uniform 5-min of EEGs was scored for each hour. The SWDs with duration >1 sec were quantified.

Data set [4] in a line: PK of celastrol from IV, IP and PO studies in C57BL/6J mice. The following applies: male, mouse, whole blood.
In data set [5] the test system is Gabrg2^+/Q390X mice. As to the kind of experiment: Early intermittent dosing, survival of Gabrg2+/Q390X mice. Conditions: 0.3 mg/kg intermittent from postnatal day 7; untreated ~25% mortality. It counts as in vivo, mouse. From the text:
(FIG. 5B, C). Gabrg2^+/Q390X mice in C57/BL/6J background had ˜25% of mortality (B) while Scn1a^+/− mice in C57/BL/6J background had ˜60% of mortality by week 7 (C). […] The Gabrg2^+/Q390X mice were in C57/BL/6J background while Scn1a^+/− sires were from mixed S129/C57BL/6J and the dams were congenic C57/BL/6J. For each mouse model, heterozygous pups of both male and female from 6-8 litters were included.

The next data set concerns Caco2 cells. As to the kind of experiment: Caco-2 intrinsic permeability. On the technique in general: Caco-2 cells form a polarised layer with tight junctions and transporters.
Data set [6] in a line: Caco-2 intrinsic permeability. Conditions: human.
A further data set relates to AppSWE/PsenIdE9 mice. The following applies: mouse, in vivo; cited from earlier work.
The target of another data set is CYP 1A2 (Homo sapiens, UniProt P05177). As to the kind of experiment: biochemical.
CYP 1A2, sequence (P05177 whole entry): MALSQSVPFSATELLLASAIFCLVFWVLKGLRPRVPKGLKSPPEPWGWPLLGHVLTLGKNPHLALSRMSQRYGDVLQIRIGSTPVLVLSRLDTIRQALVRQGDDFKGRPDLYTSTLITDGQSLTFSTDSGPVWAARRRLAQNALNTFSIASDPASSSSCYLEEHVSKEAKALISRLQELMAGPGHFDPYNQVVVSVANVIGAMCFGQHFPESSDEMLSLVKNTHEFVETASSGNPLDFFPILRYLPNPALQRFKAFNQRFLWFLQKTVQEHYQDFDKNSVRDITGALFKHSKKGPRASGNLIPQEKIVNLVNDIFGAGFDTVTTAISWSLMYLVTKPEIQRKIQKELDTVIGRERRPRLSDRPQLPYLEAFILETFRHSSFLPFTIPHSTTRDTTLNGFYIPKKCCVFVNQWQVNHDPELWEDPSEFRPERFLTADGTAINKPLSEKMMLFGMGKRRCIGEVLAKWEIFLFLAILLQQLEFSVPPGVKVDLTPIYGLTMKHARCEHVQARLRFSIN
The next data set has as its target CYP 2C8 (Homo sapiens, UniProt P10632). As to the kind of experiment: biochemical.
For data set [7], the system named is cultured cortical neurons from the wild-type mouse brains. As to the kind of experiment: Neuronal viability, trypan blue exclusion. The following applies: 0-8 μm for 4 hours, at the therapeutic levels. The class given is cell-based. As to the method: The neuronal viability was determined with membrane integrity by trypan blue exclusion method^12. The mean survival was determined by counting eight randomly selected, non-overlapping fields with each containing approximately 10-20 neurons (viable+nonviable) (n=4 different cultures). GABAAR expression was determined by the high-throughput flow cytometry. HEK 293T cells were transfected with human α1, β2 and γ2 subunit cDNAs at 1:1:1 ratio for 48 hours. The α1 subunit was chosen as readout. The anti-α1 antibody was directly conjugated with Alexa 488 (data are mean±SEM, n=4). The healthy population was gated.

A short description of data set [8]: MDCKII bidirectional assay. The following applies: dog. It counts as in vitro ADME. From the text:
(§3) MDCKII bidirectional assay was run in collaboration with Dr. Shaun Stauffer in Vanderbilt Institute of Chemical Biology (VICB) synthesis core who is a consultant on this project.

Another data set relates to MDCKII cells. As to the kind of experiment: MDCKII bidirectional assay. The class given is in vitro ADME. The following applies: MDCK II bidirectional assay.
Source text: as §3

Data set [9] addresses T2, GABAA α1β2γ2(Q390X) receptors (Homo sapiens, UniProt P14867+P18507+P47870, DEL390-467).
T2 construct: expressed in transfected cells; host or cells: HEK 293T
As to the kind of experiment: Patch clamp current amplitude, α1β2γ2(Q390X) receptors in HEK 293T cells. The class given is cell-based. Conditions: 1 μm, 4 hrs; GABA 1 mM. As to the method: as §1, §2

The structures appear in SMILES notation. pIC50: −log10 of the molar value.

T2 sequence (P14867 28-456, stated change not applied): as the sequence (P14867 28-456) above
T2 sequence (P47870 26-512, stated change not applied): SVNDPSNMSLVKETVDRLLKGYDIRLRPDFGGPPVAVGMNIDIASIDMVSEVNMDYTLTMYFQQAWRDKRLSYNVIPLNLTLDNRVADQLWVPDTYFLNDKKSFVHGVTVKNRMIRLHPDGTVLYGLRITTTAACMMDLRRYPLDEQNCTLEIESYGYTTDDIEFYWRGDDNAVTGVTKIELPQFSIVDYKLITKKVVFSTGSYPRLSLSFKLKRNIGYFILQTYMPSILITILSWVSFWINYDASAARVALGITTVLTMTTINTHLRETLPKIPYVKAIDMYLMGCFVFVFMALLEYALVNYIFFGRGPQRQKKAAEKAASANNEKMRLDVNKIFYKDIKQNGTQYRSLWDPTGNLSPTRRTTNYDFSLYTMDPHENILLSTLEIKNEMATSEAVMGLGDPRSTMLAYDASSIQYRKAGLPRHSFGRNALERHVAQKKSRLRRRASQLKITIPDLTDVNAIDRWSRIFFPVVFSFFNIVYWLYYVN
T2 sequence (P18507 40-389 isoform P18507-1 limits assumed, stated change not applied): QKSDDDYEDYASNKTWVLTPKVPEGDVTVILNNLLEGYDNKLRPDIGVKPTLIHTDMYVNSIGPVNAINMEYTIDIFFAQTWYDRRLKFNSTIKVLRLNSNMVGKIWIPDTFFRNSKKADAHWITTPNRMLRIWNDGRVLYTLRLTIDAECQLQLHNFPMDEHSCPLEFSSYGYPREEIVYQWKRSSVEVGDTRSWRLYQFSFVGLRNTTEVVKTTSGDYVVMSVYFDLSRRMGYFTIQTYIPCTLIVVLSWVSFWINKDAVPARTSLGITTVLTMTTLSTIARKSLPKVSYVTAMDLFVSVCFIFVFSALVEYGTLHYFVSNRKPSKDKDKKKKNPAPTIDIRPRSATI
CYP 2C8, sequence (P10632 whole entry): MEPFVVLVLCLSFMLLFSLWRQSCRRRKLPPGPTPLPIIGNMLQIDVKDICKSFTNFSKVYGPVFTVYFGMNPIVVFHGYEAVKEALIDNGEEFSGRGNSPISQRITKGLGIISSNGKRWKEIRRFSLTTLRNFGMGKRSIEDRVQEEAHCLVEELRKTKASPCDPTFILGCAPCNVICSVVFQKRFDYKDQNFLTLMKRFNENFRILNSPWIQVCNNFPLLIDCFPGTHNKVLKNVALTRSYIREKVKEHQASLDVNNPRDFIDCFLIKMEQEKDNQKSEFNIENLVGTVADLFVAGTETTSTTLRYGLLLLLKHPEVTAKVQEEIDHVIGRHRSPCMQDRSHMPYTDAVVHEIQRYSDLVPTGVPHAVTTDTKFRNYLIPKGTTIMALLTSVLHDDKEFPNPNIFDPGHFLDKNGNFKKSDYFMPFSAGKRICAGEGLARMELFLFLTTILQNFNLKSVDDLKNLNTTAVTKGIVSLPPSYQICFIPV

In general, CLint scaled refers to the rate of metabolic loss divided by the concentration. A high value points to faster metabolism. As a reminder, the fraction unbound is the share of the substance not bound to proteins or other matrix. What is called bioavailability is dose-corrected exposure relative to a reference, in per cent. A word on the Papp: it is the rate of passage across a membrane or cell layer, normalised by area and donor concentration. One may read the pIC50 as −log10 of the IC50, conventionally taken in molar units. As a reminder, the Papp A→B is how fast a substance crosses the layer from the apical side. With `CC1=C(O)C(=O)C=C2C1=CC=C1[C@@]2(C)CC[C@@]2(C)[C@@H]3C[C@](C)(C(=O)O)CC[C@]3(C)CC[C@]12C` [Celastrol, 3-Hydroxy-9β,13α-dimethyl-2-oxo-24,25,26-trinoroleana-1(10),3,5,7-tetraen-29-oic acid], in [1], the CLint scaled was determined as 160 mL/min/kg. Moreover, the current amplitude result in [2] and in [9] was “increased” in each case. Besides, the fraction unbound in “Plasma protein binding” was under 0.022. In addition, the “time spent at target hole in probe trial” value in the data set with Gabrb3^+/− mice was “spent more time in the target hole area”. Moreover, in the data set on Scn1a^+/− mice, the “seizure duration after PTZ” value is recorded as “shortened seizure duration”. For the same compound, the “seizure onset after PTZ” value in the data set with Scn1a^+/− mice is given as “delayed seizure onset”. Further, the “seizure severity after PTZ” value with Scn1a^+/− mice was “reduced seizure severity”. Also, the figures for the survival entry with Scn1a^+/− mice (vs untreated littermates) and with Gabrg2^+/Q390X mice [5] were “increased survival” and “completely rescued the survival”, respectively. The efficacy and tolerability result in the data set on Gabrg2^+/Q390X mice [3] (0.3 mg/kg IP daily for 14 days) was “good efficacy and tolerability”. Moreover, the seizures result in the data set on Gabrg2^+/Q390X mice [3] (1 and 5 mg/kg via oral gavage) is on record as “seizure reduction”. For the same compound, in the data set on Gabrg2^+/Q390X mice [3] (IP or oral gavage daily for 14 days, SWDs >1 sec, 24 hrs EEG), the “frequency of SWDs” value is listed as “dose dependently reduced”. The bioavailability was about 20% in data set [4] and 20% in data set [4] (10 mg/kg). For the same compound, the “membrane permeability in Caco2 assay, in words” value in the data set with Caco2 cells is reported as “high membrane permeability”. Also, the Papp at 2 h, 2 microM in data set [6] is at least 1 ×10⁻⁶ cm/s. Besides, in the data set on AppSWE/PsenIdE9 mice, the memory result is recorded as “improve memory”. Also, the values for the pIC50 against CYP 1A2 and on CYP 2C8 were under 5.00 and 5.66, respectively. Besides, the cell viability result in data set [7] is recorded as “no reduced cell viability”. Moreover, in [8] (MDCK, MDCKII cells, read-out: apparent membrane permeability Papp), the Papp is at least 1 ×10⁻⁶ cm/s. The apparent permeability from apical to basolateral (Papp A→B) in [8] (MDCK II bidirectional assay) came out at 56.5 ×10⁻⁶ cm/s. The efflux result in the data set with MDCKII cells is listed as “no significant efflux”.
